Experimental findings from patent US20160207969A1, “CLOSTRIDIUM DIFFICILE TARGETING MOIETIES AND CONSTRUCTS COMPRISING SAID MOIETIES” (C3 Jian, Inc., priority 2014, published 2016) are described below.

One data set has as its system Trubrum. Put plainly: MIC of antimicrobial peptides (Table 3). Format: cell-based.
The test system of data set [1] is C. difficile isolate CD1382 (ATCC 630, strain 1382). The settings on record: ATCC 630, 24 h.
Data set [2] relates to C. difficile isolate CD1803 (ATCC BAA-1803). The settings on record: ATCC BAA-1803, 24 h.
The subject of data set [3] is C. difficile isolate CD1875 (ATCC BAA-1875). Conditions: ATCC BAA-1875, 24 h.
Data set [4] deals with C. difficile isolate CD43255 (ATCC 43255). The settings on record: ATCC 43255, 24 h.
Data set [5] relates to C. difficile isolate CD43601 (ATCC 43601, non-toxigenic). The settings on record: ATCC 43601, 24 h.
Data set [6] relates to B. fragilis. Conditions: 24 h.
The test system of another data set is L. casei. The settings on record: 24 h.
Data set [7] has as its system B. fragilis. The experiment in a line: Peptide killing kinetics (CFU plating, co-culture). In kind it is cell-based. The settings on record: for activity on un-targeted organism B. fragilis compared to the levels seen on C. difficile isolate 1803: killing kinetics; for surviving B. fragilis: through 2 hours of STAMP exposure.
For data set [8], the system named is C. difficile isolate 1803. The settings on record: Clostridium difficile, 15 min.
The next data set relates to C. difficile. The experiment in a line: MIC of antimicrobial peptides (Table 3). Conditions: unit not given. In kind it is cell-based.

Ends that are not written are not given here.

For the substance “WSRVPGHSDTGWKVWHRW (Antimicrobial peptide) [PF-547]”, in the data set with Trubrum, the “Organism MIC” value was “Trubrum, 25 μM”.
On to “MKRRRCNWCGKLFYLEEKSKEAYCCKECRKKAKKVKK (Antimicrobial peptide) [PF-307]”, for which the “Organism MIC” value with Trubrum is recorded as “Trubrum, 50 μM”.
On to “VPAKLLRVIKKIPGGFLKFLKKFFKKLK-NH2 [CD0714 + AF5_2G_M4]”, for which the MIC values was 3.9 µg/mL in [1]; 7.8 µg/mL in [2]; 15.6 µg/mL in data set [3]; 7.8 µg/mL in data set [4]; 3.9 µg/mL in data set [5]; 62.5 µg/mL against B. fragilis [6]. In the data set on L. casei, this substance had an MIC values of 125 µg/mL.
As for “VLPFPAIPLSRRRACVAAPRPRSRQRAS (Antimicrobial peptide) [PF-168]”, the “Organism MIC” value in the data set with Trubrum is reported as “Trubrum, 50 μM”.
On to “LATLKKYLKEHKKMGKIFGAIWPLALGALKNLIK-NH2 [CD0126 + Lys_A1_M3]”, for which the MIC values was 3.9 µg/mL in data set [1]; 7.8 µg/mL in data set [2]; 7.8 µg/mL in data set [3]; 7.8 µg/mL in data set [4]; 7.8 µg/mL in data set [5]; more than 250 µg/mL in the data set on B. fragilis [6]. The same substance yielded an MIC values in the data set on L. casei of more than 250 µg/mL.
On to “LATKLKYEKEHKKMGGGGFLKFLKKFFKKLKYY-NH2 [CD0126 + AF5_4G]”, for which the “activity on un-targeted organism B. fragilis compared to the levels seen on C. difficile isolate 1803” value with B. fragilis [7] is recorded as “less active”. The “surviving B. fragilis” value with B. fragilis [7] was “did not significantly decrease”. For the same substance, the MIC values in data set [1] was 15.6 µg/mL; in data set [2] it was 31.3 µg/mL; in [3] it was 15.6 µg/mL; in data set [4] it was 15.6 µg/mL; in data set [5], 7.8 µg/mL; in the data set with B. fragilis [6], more than 250 µg/mL. Moreover, the MIC values against L. casei is more than 250 µg/mL. In data set [8], the “viable C. difficile recovered” value is recorded as less than 90%.
Regarding “LATKLKYEKEHKKMGKIFGAIWPLALGALKNLIK-NH2 [CD0126 + Lys_A1_1G]”, the MIC values in data set [1] was 7.8 µg/mL; in data set [2], 7.8 µg/mL; in data set [3] it was 15.6 µg/mL; in data set [4] it was 15.6 µg/mL; in data set [5], 15.6 µg/mL; against B. fragilis [6], more than 250 µg/mL. The MIC values in the data set with L. casei is more than 250 µg/mL. Besides, the “viable C. difficile recovered” value in data set [8] is reported as less than 90%.
Turning to “FELVDWLETNLGKILKSKSA (Antimicrobial peptide) [PF-522]”, in the data set with C. difficile, the “Organism MIC” value is “C. difficile, 25”.
For the substance “VPAKLLRVIDEIPKLFKFLRKHLL-NH2 [CD0714 + BD2-21_NG]”, the MIC values in [1] is 7.8 µg/mL; in data set [2], 15.6 µg/mL; in data set [3], 15.6 µg/mL; in data set [4] it was 7.8 µg/mL; in data set [5], 3.9 µg/mL; against B. fragilis [6], more than 250 µg/mL. Further, in the data set on L. casei, the MIC values turned out to be 125 µg/mL.
For the substance “VPAKLLRVIKEIPGGFLKFLKKFFKKLK-NH2 [CD0714 + AF5_2G_M7]”, the MIC values in data set [1] is 7.8 µg/mL; in data set [2], 3.9 µg/mL; in data set [3], 15.6 µg/mL; in data set [4], 3.9 µg/mL; in data set [5], 7.8 µg/mL; in the data set with B. fragilis [6], more than 250 µg/mL. This substance also returned an MIC values in the data set on L. casei of more than 250 µg/mL.
Regarding “MRFGSLALVAYDSAIKHSWPRPSSVRRLRM (Antimicrobial peptide) [PF-672]”, the “Organism MIC” value in the data set with Trubrum is reported as “Trubrum, 0.78 μM”.
“VPAKLLRVIDEIPGGFLKFLKKFFKKLKY-NH2 [CD0714 + AF5_2G]”: the MIC values was 31.3 µg/mL in data set [1]; 62.5 µg/mL in [2]; 62.5 µg/mL in [3]; 31.3 µg/mL in data set [4]; more than 250 µg/mL in the data set with B. fragilis [6]; more than 250 µg/mL with L. casei.
Take “GNFYRLFKDILKGGGKNLRIIRKGIHIIKKY-NH2 (C-terminus assumed) [CD8040_G2_3G]”: the “activity on un-targeted organism B. fragilis compared to the levels seen on C. difficile isolate 1803” value with B. fragilis [7] is “less active”. Further, the “surviving B. fragilis” value in the data set with B. fragilis [7] was “did not significantly decrease”. For the same substance, the MIC values in data set [1] came out at 15.6 µg/mL; in data set [2], 15.6 µg/mL; in data set [3] it was 62.5 µg/mL; in data set [4], 31.3 µg/mL; in data set [5] it was 31.3 µg/mL; against B. fragilis [6] it was 62.5 µg/mL. This substance also registered an MIC values against L. casei of more than 250 µg/mL. Besides, in data set [8], the “viable C. difficile recovered” value is given as less than 90%.
With “GSVIKKRRKRMAKKKHRKLLKKTRIQRRRAGK [PF-527]”, the “Organism MIC” value in the data set with Trubrum is “Trubrum, 25 μM”.
For “NILRVLKQVWKGGGKNLRIIRKGIHIIKKY-NH2 (C-terminus assumed) [CD9232_G2_3G]”, in the data set on B. fragilis [7], the “activity on un-targeted organism B. fragilis compared to the levels seen on C. difficile isolate 1803” value was “less active”. In the data set on B. fragilis [7], the “surviving B. fragilis” value is listed as “did not significantly decrease”. Moreover, the MIC values in data set [1] was found to be 3.9 µg/mL; in [2] it was 7.8 µg/mL; in [3] it was 31.3 µg/mL; in data set [4] it was 7.8 µg/mL; in data set [5], 7.8 µg/mL; against B. fragilis [6], 15.6 µg/mL. For the same substance, the MIC values with L. casei was found to be 125 µg/mL. The “viable C. difficile recovered” value in data set [8] was less than 90%.
As to “MIRIRSPTKKKLNRNSISDWKSNTSGRFFY (Antimicrobial peptide) [PF-283]”, the “Organism MIC” value in the data set with Trubrum was “Trubrum, 50 μM”.
As for “VPAKLLRVIDEIPGGKIFGAIWPLALGALKNLIK-NH2 [CD0714 + Lys_A1_2G]”, the MIC values in data set [1] is 31.3 µg/mL; in data set [2], 125 µg/mL; in data set [3], 31.3 µg/mL; in data set [4] it was 62.5 µg/mL; in [5], 15.6 µg/mL; in the data set on B. fragilis [6], more than 250 µg/mL. Besides, the MIC values with L. casei is more than 250 µg/mL.
As for “LSLATFAKIFMTRSNWSLKRFNRL (Antimicrobial peptide) [PF-278]”, in the data set on Trubrum, the “Organism MIC” value is reported as “Trubrum, 50 μM”.
